Laboratory results: ChEMBL document CHEMBL5291721, “A preclinical secondary pharmacology resource illuminates target-adverse drug reaction associations of marketed drugs” (Nat Commun, 2023)

Key:
Adenosine receptor A1 = target: T1, Adenosine receptor A1 (Homo sapiens, UniProt P30542)
T1 sequence (P30542 whole entry): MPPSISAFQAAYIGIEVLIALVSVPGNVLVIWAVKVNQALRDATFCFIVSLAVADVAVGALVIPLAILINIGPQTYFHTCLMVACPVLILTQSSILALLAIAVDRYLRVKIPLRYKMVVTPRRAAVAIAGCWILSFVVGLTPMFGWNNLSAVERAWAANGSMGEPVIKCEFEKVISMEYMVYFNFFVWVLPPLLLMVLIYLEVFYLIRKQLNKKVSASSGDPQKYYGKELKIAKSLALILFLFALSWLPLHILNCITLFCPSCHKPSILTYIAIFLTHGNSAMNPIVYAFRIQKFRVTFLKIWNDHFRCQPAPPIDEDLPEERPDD

[1] = target: T2, Type-1 angiotensin II receptor (Homo sapiens, UniProt P30556)
T2 sequence (P30556 whole entry): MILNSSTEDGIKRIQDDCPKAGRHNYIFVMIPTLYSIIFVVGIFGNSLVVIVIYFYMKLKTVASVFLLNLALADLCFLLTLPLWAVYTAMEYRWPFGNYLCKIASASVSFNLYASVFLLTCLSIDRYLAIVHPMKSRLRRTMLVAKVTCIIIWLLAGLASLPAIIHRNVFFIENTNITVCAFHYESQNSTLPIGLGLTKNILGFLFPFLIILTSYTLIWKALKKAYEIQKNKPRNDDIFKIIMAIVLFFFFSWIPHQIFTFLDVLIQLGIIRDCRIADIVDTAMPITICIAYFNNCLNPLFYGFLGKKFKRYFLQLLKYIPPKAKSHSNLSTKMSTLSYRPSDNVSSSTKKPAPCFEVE

Vasopressin V2 receptor = Vasopressin V2 receptor (Homo sapiens, UniProt P30518)
Sequence of Vasopressin V2 receptor (P30518 whole entry): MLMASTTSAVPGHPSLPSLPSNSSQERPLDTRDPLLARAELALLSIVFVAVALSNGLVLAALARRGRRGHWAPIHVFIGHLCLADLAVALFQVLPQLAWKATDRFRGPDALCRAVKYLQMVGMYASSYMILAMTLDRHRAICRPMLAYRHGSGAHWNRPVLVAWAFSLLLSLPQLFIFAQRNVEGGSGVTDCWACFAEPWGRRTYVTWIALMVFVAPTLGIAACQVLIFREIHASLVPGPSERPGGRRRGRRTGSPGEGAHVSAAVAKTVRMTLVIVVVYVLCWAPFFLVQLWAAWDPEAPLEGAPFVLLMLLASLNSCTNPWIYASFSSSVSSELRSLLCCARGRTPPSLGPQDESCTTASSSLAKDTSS

[2] = target: T3, Cholecystokinin receptor type A (Homo sapiens, UniProt P32238)
T3 sequence (P32238 whole entry): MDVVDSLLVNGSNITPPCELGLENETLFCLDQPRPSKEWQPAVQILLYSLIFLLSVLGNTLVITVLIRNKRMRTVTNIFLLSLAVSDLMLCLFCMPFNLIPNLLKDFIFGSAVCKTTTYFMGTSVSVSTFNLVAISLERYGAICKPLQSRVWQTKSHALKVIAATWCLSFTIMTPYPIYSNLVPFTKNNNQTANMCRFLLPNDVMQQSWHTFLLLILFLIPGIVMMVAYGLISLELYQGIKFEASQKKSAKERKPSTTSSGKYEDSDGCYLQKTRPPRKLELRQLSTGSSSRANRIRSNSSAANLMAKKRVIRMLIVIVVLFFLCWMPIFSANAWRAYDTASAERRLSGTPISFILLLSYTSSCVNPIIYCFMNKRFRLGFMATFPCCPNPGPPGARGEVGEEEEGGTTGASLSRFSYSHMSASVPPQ

[3] = target: Glutamate receptor ionotropic, NMDA 1 (Rattus norvegicus, UniProt P35439)
[4] = target: Voltage-gated inwardly rectifying potassium channel KCNH2 (Homo sapiens, UniProt Q12809); type: functional
Sequence of Voltage-gated inwardly rectifying potassium channel KCNH2 (Q12809 whole entry): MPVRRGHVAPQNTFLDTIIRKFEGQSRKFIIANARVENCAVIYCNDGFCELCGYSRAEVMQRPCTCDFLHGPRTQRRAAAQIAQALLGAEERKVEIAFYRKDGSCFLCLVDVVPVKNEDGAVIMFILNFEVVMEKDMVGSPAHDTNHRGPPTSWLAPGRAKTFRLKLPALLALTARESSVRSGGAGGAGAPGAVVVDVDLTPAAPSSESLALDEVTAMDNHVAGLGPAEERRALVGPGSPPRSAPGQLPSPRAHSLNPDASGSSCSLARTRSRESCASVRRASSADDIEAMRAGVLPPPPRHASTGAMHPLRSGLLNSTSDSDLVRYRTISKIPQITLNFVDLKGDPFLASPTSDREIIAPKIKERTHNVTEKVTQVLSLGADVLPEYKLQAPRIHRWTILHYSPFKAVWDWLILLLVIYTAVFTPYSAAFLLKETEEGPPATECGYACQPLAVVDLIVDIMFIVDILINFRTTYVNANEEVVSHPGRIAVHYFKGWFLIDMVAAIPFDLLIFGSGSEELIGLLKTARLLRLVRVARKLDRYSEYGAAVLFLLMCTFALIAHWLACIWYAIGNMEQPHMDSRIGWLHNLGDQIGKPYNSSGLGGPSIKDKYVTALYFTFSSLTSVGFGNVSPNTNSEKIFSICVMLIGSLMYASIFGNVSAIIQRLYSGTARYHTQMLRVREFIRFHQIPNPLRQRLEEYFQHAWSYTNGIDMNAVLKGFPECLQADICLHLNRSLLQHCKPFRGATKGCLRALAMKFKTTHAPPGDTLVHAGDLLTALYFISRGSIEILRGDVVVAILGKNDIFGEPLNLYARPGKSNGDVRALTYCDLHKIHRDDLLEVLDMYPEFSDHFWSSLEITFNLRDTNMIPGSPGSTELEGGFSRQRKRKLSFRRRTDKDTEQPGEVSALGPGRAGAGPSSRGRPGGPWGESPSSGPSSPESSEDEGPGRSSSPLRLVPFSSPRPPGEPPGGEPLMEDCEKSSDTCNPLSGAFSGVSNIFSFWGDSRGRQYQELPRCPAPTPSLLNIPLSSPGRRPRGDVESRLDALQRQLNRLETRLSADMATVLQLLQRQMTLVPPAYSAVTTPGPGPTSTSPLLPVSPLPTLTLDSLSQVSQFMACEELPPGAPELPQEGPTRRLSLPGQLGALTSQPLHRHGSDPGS

Motilin receptor = Motilin receptor (Homo sapiens, UniProt O43193)
Sequence of Motilin receptor (O43193 whole entry): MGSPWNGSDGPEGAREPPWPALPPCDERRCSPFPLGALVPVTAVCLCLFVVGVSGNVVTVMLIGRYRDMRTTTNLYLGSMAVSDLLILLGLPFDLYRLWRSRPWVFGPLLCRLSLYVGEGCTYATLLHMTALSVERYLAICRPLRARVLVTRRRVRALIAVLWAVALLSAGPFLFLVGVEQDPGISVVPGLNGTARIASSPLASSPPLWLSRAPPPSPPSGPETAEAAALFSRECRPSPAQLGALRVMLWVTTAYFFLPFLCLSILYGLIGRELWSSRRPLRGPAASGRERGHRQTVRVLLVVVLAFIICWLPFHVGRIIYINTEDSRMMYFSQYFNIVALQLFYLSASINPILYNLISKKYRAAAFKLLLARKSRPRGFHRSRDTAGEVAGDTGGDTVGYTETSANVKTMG

[5] = target: Delta-type opioid receptor (Homo sapiens, UniProt P41143)
Sequence of Delta-type opioid receptor (P41143 whole entry): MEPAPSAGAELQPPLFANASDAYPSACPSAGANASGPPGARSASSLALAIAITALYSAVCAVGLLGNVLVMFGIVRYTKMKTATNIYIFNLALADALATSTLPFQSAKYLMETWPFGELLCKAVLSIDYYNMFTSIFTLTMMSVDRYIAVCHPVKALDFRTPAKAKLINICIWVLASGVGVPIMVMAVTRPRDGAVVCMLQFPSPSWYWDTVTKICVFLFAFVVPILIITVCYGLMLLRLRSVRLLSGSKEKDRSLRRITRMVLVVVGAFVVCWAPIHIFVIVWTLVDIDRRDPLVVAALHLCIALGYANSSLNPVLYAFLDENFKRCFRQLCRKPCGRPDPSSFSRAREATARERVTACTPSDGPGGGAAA

[6] = target: Kappa-type opioid receptor (Homo sapiens, UniProt P41145)
Sequence of Kappa-type opioid receptor (P41145 whole entry): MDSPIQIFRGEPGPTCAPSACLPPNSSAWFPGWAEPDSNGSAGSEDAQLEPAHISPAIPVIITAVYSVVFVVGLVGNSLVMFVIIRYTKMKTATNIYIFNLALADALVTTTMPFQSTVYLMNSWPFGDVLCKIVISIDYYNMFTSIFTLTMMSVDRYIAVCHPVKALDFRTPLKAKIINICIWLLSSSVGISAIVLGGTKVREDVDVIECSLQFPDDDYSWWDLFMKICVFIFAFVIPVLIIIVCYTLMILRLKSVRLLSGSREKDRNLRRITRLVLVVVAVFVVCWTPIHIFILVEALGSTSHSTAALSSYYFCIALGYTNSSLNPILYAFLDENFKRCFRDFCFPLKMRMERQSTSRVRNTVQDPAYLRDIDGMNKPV

Progesterone receptor = target: T4, Progesterone receptor (Homo sapiens, UniProt P06401); type: functional
T4 sequence (P06401 whole entry): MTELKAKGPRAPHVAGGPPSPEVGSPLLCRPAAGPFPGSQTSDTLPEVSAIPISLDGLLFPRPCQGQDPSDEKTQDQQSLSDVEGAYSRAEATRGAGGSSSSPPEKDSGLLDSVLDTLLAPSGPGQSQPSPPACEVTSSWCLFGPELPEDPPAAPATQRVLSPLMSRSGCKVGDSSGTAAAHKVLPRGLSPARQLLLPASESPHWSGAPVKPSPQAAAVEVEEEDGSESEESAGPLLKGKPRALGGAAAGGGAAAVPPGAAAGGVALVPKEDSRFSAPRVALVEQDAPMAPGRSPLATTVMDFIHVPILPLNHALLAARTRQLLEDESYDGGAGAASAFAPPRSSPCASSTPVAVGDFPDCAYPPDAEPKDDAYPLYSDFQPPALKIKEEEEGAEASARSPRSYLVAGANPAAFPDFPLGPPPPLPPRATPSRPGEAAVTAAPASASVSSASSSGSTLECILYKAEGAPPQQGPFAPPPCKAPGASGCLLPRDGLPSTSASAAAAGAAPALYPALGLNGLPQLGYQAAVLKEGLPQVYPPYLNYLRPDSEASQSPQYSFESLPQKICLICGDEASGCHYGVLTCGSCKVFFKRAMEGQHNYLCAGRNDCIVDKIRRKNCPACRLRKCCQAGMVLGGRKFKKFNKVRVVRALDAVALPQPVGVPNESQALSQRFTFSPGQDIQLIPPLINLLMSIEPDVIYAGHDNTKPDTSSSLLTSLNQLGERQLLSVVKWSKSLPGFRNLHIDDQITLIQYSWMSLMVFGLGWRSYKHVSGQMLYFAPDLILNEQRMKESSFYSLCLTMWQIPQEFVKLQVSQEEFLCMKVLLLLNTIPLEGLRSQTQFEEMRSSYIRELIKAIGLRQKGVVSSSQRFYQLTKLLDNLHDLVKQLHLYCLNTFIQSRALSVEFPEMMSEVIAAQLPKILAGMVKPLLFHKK

Histamine H3 receptor = Histamine H3 receptor (Homo sapiens, UniProt Q9Y5N1)
Sequence of Histamine H3 receptor (Q9Y5N1 whole entry): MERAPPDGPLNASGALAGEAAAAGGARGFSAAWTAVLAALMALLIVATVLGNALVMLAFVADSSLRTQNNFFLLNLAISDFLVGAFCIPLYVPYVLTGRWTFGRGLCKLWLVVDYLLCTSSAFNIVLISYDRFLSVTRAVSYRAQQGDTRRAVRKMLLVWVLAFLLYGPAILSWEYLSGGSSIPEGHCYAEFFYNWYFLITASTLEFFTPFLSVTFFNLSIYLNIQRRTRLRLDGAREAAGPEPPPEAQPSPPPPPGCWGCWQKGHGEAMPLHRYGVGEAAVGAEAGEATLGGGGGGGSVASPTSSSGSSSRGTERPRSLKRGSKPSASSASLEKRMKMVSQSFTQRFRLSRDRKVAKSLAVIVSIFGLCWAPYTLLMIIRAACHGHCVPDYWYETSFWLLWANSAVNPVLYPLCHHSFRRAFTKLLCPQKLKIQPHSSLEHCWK
Note: assay procedure not described here.

| Structure (SMILES) | AC50 (Adenosine receptor A1) [µM] | AC50 [1] [µM] | AC50 (Vasopressin V2 receptor) [µM] | AC50 [2] [µM] | AC50 [3] [µM] | AC50 [4] [µM] | AC50 (Motilin receptor) [µM] | AC50 [5] [µM] | AC50 [6] [µM] | AC50 (Progesterone receptor) [µM] | AC50 (Histamine H3 receptor) [µM] |
| --- | --- | --- | --- | --- | --- | --- | --- | --- | --- | --- | --- |
| CC(=O)c1ccc(S(=O)(=O)NC(=O)NC2CCCCC2)cc1 [ACETOHEXAMIDE] | > 10 | > 10 | > 10 | > 10 | > 10 | > 30 | > 10 | > 30 | > 10 | > 10 | – |
| CCC1(CCC(C)C)C(=O)NC(=O)NC1=O [AMOBARBITAL] | > 10 | > 10 | > 10 | > 10 | > 10 | > 30 | > 10 | > 30 | > 10 | > 10 | – |
| COc1ccc(C2C(=O)c3ccccc3C2=O)cc1 [ANISINDIONE] | > 10 | > 10 | > 10 | > 10 | > 10 | > 30 | > 10 | > 30 | > 10 | > 30 | – |
| O=C(O)c1ccc(NC(=O)[C@H](Cc2ccc(O)cc2)NC(=O)c2ccccc2)cc1 [BENTIROMIDE] | > 10 | > 10 | > 10 | > 10 | > 10 | > 30 | > 10 | > 30 | > 10 | > 10 | – |
| NS(=O)(=O)c1cc2c(cc1Cl)N=C(CSCc1ccccc1)NS2(=O)=O [BENZTHIAZIDE] | > 10 | > 10 | > 10 | > 10 | > 10 | > 30 | > 10 | > 30 | > 10 | > 30 | – |
| CO/N=C(\C(=O)N[C@@H]1C(=O)N2C(C(=O)O)=CCS[C@H]12)c1csc(N)n1 [CEFTIZOXIME] | > 30 | > 30 | > 30 | > 30 | – | > 30 | > 30 | – | – | 26 | > 30 |
| CC(C)[C@@H](C)/C=C/[C@@H](C)[C@H]1CC[C@H]2/C(=C/C=C3\C[C@@H](O)CC[C@@H]3C)CCC[C@]12C [DIHYDROTACHYSTEROL] | > 10 | > 10 | > 10 | > 10 | > 10 | > 30 | > 10 | > 30 | > 10 | 11.2 | – |
| O=C1Nc2ccc(Cl)cc2C(c2ccccc2Cl)=NC1O (stereo not drawn) [LORAZEPAM] | > 30 | > 30 | > 30 | > 30 | > 10 | > 30 | > 10 | > 30 | > 10 | – | > 10 |
| CCCC(C)(COC(N)=O)COC(N)=O [MEPROBAMATE] | > 10 | > 10 | > 10 | > 10 | > 10 | > 30 | > 10 | > 30 | > 10 | > 10 | – |
| COc1ccc2cc(CCC(C)=O)ccc2c1 [NABUMETONE] | > 10 | > 10 | > 10 | > 10 | > 10 | > 30 | > 10 | > 30 | > 10 | > 10 | – |
| Cc1ccnc2c1NC(=O)c1cccnc1N2C1CC1 [NEVIRAPINE] | 31.2 | > 30 | > 30 | > 30 | > 10 | > 30 | > 10 | > 10 | > 10 | – | > 10 |
| O=C(c1cc(Cc2n[nH]c(=O)c3ccccc23)ccc1F)N1CCN(C(=O)C2CC2)CC1 [OLAPARIB] | 11.9 | > 30 | > 30 | > 30 | > 10 | > 30 | > 30 | > 30 | > 10 | > 30 | – |
| C[C@]12C/C(=C/O)C(=O)C[C@@H]1CC[C@@H]1[C@@H]2CC[C@@]2(C)[C@H]1CC[C@]2(C)O [OXYMETHOLONE] | > 30 | 15 | > 30 | > 30 | > 30 | > 30 | > 30 | > 30 | > 30 | – | > 30 |
| NC(=O)NC(=O)Cc1ccccc1 [PHENACEMIDE] | > 10 | > 10 | > 10 | > 10 | > 10 | > 30 | > 10 | > 30 | > 10 | > 10 | – |
| CCCN(CCC)S(=O)(=O)c1ccc(C(=O)O)cc1 [PROBENECID] | > 10 | > 10 | > 10 | > 10 | > 10 | > 30 | > 10 | > 30 | > 10 | > 10 | – |
| CCc1nc(N)nc(N)c1-c1ccc(Cl)cc1 [PYRIMETHAMINE] | > 10 | > 10 | > 10 | > 10 | > 10 | 0.649 | > 10 | > 30 | > 30 | > 10 | – |
| CC1=C(/C=C/C(C)=C/C=C/C(C)=C/CO)C(C)(C)CCC1 [RETINOL] | > 10 | > 30 | > 10 | > 10 | > 10 | – | > 10 | > 30 | – | > 30 | – |
| Cc1cc(C)nc(NS(=O)(=O)c2ccc(N)cc2)n1 [SULFAMETHAZINE] | > 10 | > 10 | > 10 | > 10 | > 10 | > 30 | > 10 | > 30 | > 10 | > 10 | – |
| CCOC(=O)c1ccc(C#Cc2ccc3c(c2)C(C)(C)CCS3)nc1 [TAZAROTENE] | > 30 | > 30 | > 30 | > 30 | > 10 | > 30 | > 10 | > 30 | > 10 | – | > 10 |
| CCCCCCCC(=O)CC[C@@H]1[C@@H](C/C=C\CCCC(=O)OC(C)C)[C@@H](O)C[C@H]1O [UNOPROSTONE ISOPROPYL] | – | – | – | – | – | – | – | > 30 | – | 21 | – |
